Data published in patent publication US20230348473A1, “SUBSTITUTED PYRIDINES AS PARP1 INHIBITORS” (Xinthera, Inc., priority 2022, published 2023).

Test system: DLD-1 parental cells
Test: Cell growth inhibition assay (CellTiter-Glo), DLD-1 parental
Type: cell-based
Conditions: Homo sapiens, DLD-1, 168 h; 7 days, CellTiter Glo 2.0
Excerpt: The objective of this study is to evaluate the effect of compound disclosed herein on cell proliferation through the cell viability assay in DLD-1 BRCA2(−/−) and parental isogenic pair and MDA-MB-436 (mutated BRCA1) cell lines. The CellTiter-Glo (CTG) based cell viability assay is designed to determine the number of viable cells in the culture because of compound effect, by quantifying ATP, which indicates the presence of metabolically active cells.
DLD-1 BRCA2(−/−) and parental isogenic pair were cultured in RPMI 1640 supplemented with 10% fetal bovine serum (FBS), and MDA-MB-436 cells were cultured in DMEM supplemented with 10% FBS. Both are culture at 37° C. with 5% CO2. Invention compounds were distributed to the 384 well plate (Corning, 3764) using Echo acoustic liquid handler to form a 1:3 serially diluted final concentration with top dose of 10 or 30 μM. The cells were seeded into the plate in the density of 50 cells/well (DLD-1 parental), 200 cells/well (DLD-1 BRCA2−/−), or 500 cells/well (MDA-MB-436). After a short spun, the cells were cultured in a well moisturized incubator at 37° C. with 5% CO2 for 7 days without disturbance. The cell viability was measured by CellTiter Glo 2.0 assay kit (Promega, G9243), and growth inhibition rate was calculated and plotted against final compound concentration, and the data were fitted in Xfit to generate IC50.

Question: How did the EC50 turn out when [2H]C([2H])([2H])NC(=O)c1ccc(N2CCN(Cc3ccc4c5c(c(=O)[nH]c4c3F)CCO5)CC2)c(F)n1 [Example 22] was run?
Answer: > 30 µM
